From the NIST ThermoML archive (doi:10.1016/j.jct.2007.05.011)
Numbers after ± are expanded uncertainties.

Test: xn = mol fraction of the nth substance listed
Settings: 101 kPa, Liquid; for mass density: Vibrating tube method

NCCO.O=CO [2-hydroxyethylammonium formate] + CCO
Settings	mass density [kg/m3]	speed of sound [m/s]
305.65 K, x2 = 0	–	1690.8 ± 9.8
305.65 K, x2 = 0.058	–	1704.7 ± 9.7
305.65 K, x2 = 0.098	–	1685.5 ± 9.5
305.65 K, x2 = 0.193	–	1642.7 ± 9.2
305.65 K, x2 = 0.296	–	1598.7 ± 8.8
305.65 K, x2 = 0.399	–	1545.2 ± 8.4
305.65 K, x2 = 0.5	–	1485.4 ± 8
305.65 K, x2 = 0.598	–	1421.8 ± 7.7
305.65 K, x2 = 0.701	–	1353.1 ± 7.3
305.65 K, x2 = 0.799	–	1281.3 ± 6.9
305.65 K, x2 = 0.9	–	1206.1 ± 6.5
305.65 K, x2 = 0.95	–	1165.7 ± 6.3
308.15 K, x2 = 0	1169.39 ± 31	1684.8 ± 9.7
308.15 K, x2 = 0.058	1159.76 ± 31	1699.5 ± 9.7
308.15 K, x2 = 0.098	1147.72 ± 30	1680.2 ± 9.5
308.15 K, x2 = 0.193	1122.18 ± 30	1637.3 ± 9.1
308.15 K, x2 = 0.296	1096.28 ± 30	1593 ± 8.8
308.15 K, x2 = 0.399	1065.47 ± 30	1539.2 ± 8.4
308.15 K, x2 = 0.5	1030.18 ± 30	1479.2 ± 8
308.15 K, x2 = 0.598	991.781 ± 30	1415.2 ± 7.6
308.15 K, x2 = 0.701	948.127 ± 30	1346.1 ± 7.2
308.15 K, x2 = 0.799	898.707 ± 30	1274 ± 6.8
308.15 K, x2 = 0.9	842.788 ± 30	1198.3 ± 6.5
308.15 K, x2 = 0.95	811.783 ± 30	1157.6 ± 6.3
310.65 K, x2 = 0	1167.62 ± 31	1678.7 ± 9.7
310.65 K, x2 = 0.058	1158.11 ± 31	1694.4 ± 9.6
310.65 K, x2 = 0.098	1146.06 ± 30	1674.9 ± 9.5
310.65 K, x2 = 0.193	1120.49 ± 30	1631.8 ± 9.1
310.65 K, x2 = 0.296	1094.56 ± 30	1587.4 ± 8.8
310.65 K, x2 = 0.399	1063.71 ± 30	1533.3 ± 8.4
310.65 K, x2 = 0.5	1028.38 ± 30	1473 ± 8
310.65 K, x2 = 0.598	989.927 ± 30	1408.7 ± 7.6
310.65 K, x2 = 0.701	946.21 ± 30	1339.3 ± 7.2
310.65 K, x2 = 0.799	896.716 ± 30	1266.7 ± 6.8
310.65 K, x2 = 0.9	840.709 ± 30	1190.5 ± 6.4
310.65 K, x2 = 0.95	809.653 ± 30	1149.5 ± 6.2
313.15 K, x2 = 0	1165.84 ± 31	1672.7 ± 9.7
313.15 K, x2 = 0.058	1156.45 ± 31	1689.2 ± 9.6
313.15 K, x2 = 0.098	1144.4 ± 30	1669.8 ± 9.4
313.15 K, x2 = 0.193	1118.8 ± 30	1626.3 ± 9.1
313.15 K, x2 = 0.296	1092.84 ± 30	1581.7 ± 8.7
313.15 K, x2 = 0.399	1061.95 ± 30	1527.4 ± 8.4
313.15 K, x2 = 0.5	1026.57 ± 30	1466.8 ± 8
313.15 K, x2 = 0.598	988.066 ± 30	1402.2 ± 7.6
313.15 K, x2 = 0.701	944.29 ± 30	1332.3 ± 7.2
313.15 K, x2 = 0.799	894.718 ± 30	1259.3 ± 6.8
313.15 K, x2 = 0.9	838.621 ± 30	1182.7 ± 6.4
313.15 K, x2 = 0.95	807.511 ± 30	1141.4 ± 6.2
315.65 K, x2 = 0	1164.06 ± 31	1666.7 ± 9.7
315.65 K, x2 = 0.058	1154.81 ± 31	1684.1 ± 9.6
315.65 K, x2 = 0.098	1142.73 ± 30	1664.5 ± 9.4
315.65 K, x2 = 0.193	1117.11 ± 30	1620.9 ± 9.1
315.65 K, x2 = 0.296	1091.12 ± 30	1576 ± 8.7
315.65 K, x2 = 0.399	1060.19 ± 30	1521.5 ± 8.3
315.65 K, x2 = 0.5	1024.77 ± 30	1460.5 ± 7.9
315.65 K, x2 = 0.598	986.208 ± 30	1395.6 ± 7.5
315.65 K, x2 = 0.701	942.365 ± 30	1325.5 ± 7.2
315.65 K, x2 = 0.799	892.716 ± 30	1252 ± 6.8
315.65 K, x2 = 0.9	836.524 ± 30	1174.9 ± 6.4
315.65 K, x2 = 0.95	805.362 ± 30	1133.4 ± 6.2
318.15 K, x2 = 0	1162.29 ± 31	1660.8 ± 9.6
318.15 K, x2 = 0.058	1153.16 ± 31	1679 ± 9.6
318.15 K, x2 = 0.098	1141.07 ± 30	1659.2 ± 9.4
318.15 K, x2 = 0.193	1115.42 ± 30	1615.5 ± 9.1
318.15 K, x2 = 0.296	1089.4 ± 30	1570.4 ± 8.7
318.15 K, x2 = 0.399	1058.44 ± 30	1515.6 ± 8.3
318.15 K, x2 = 0.5	1022.96 ± 30	1454.4 ± 7.9
318.15 K, x2 = 0.598	984.346 ± 30	1389.2 ± 7.5
318.15 K, x2 = 0.701	940.437 ± 30	1318.7 ± 7.1
318.15 K, x2 = 0.799	890.71 ± 30	1244.8 ± 6.7
318.15 K, x2 = 0.9	834.423 ± 30	1167.2 ± 6.3
318.15 K, x2 = 0.95	803.205 ± 30	1125.4 ± 6.2
320.65 K, x2 = 0	1160.51 ± 31	1654.8 ± 9.6
320.65 K, x2 = 0.058	1151.51 ± 31	1673.9 ± 9.6
320.65 K, x2 = 0.098	1139.41 ± 30	1654 ± 9.4
320.65 K, x2 = 0.193	1113.73 ± 30	1610.1 ± 9
320.65 K, x2 = 0.296	1087.69 ± 30	1564.8 ± 8.7
320.65 K, x2 = 0.399	1056.68 ± 30	1509.9 ± 8.3
320.65 K, x2 = 0.5	1021.15 ± 30	1448.2 ± 7.9
320.65 K, x2 = 0.598	982.484 ± 30	1382.8 ± 7.5
320.65 K, x2 = 0.701	938.509 ± 30	1311.8 ± 7.1
320.65 K, x2 = 0.799	888.697 ± 30	1237.6 ± 6.7
320.65 K, x2 = 0.9	832.314 ± 30	1159.5 ± 6.3
320.65 K, x2 = 0.95	801.039 ± 30	1117.5 ± 6.1
323.15 K, x2 = 0	1158.73 ± 31	1648.9 ± 9.6
323.15 K, x2 = 0.058	1149.88 ± 31	1668.8 ± 9.6
323.15 K, x2 = 0.098	1137.78 ± 30	1648.8 ± 9.4
323.15 K, x2 = 0.193	1112.06 ± 30	1604.7 ± 9
323.15 K, x2 = 0.296	1085.98 ± 30	1559.4 ± 8.7
323.15 K, x2 = 0.399	1054.93 ± 30	1504.2 ± 8.3
323.15 K, x2 = 0.5	1019.35 ± 30	1442.1 ± 7.9
323.15 K, x2 = 0.598	980.632 ± 30	1376.5 ± 7.5
323.15 K, x2 = 0.701	936.584 ± 30	1305.1 ± 7.1
323.15 K, x2 = 0.799	886.69 ± 30	1230.5 ± 6.7
323.15 K, x2 = 0.9	830.212 ± 30	1152 ± 6.3
323.15 K, x2 = 0.95	798.879 ± 30	1109.7 ± 6.1
